Data published in article PMC4747383, “Design of a peptidic inhibitor that targets the dimer interface of a prototypic galectin” (Oncotarget, 2015).
“Also recorded” adds a separate entry of the source. No end group written: not given here.

Experiments:
recombinant hGal-7 = assay: Disruption of hGal-7 homodimers, native gel electrophoresis/Western blot; assay type: biochemical, human; conditions: for disruption of hGal-7 homodimers (in words): 0.5 μM recombinant hGal-7, 20 mM potassium phosphate pH 7.1, 1 h at 4°C
Source text: To measure the ability of the peptides to disrupt the formation of hGal-7 dimers, we used mild denaturing native gel electrophoresis, a commonly used approach to visualize monomer-dimer equilibrium (Fig. 1A and Supplementary Fig. S1). […] This specificity at disrupting hGal-7 dimer formation is provided by distinct three-dimensional arrangements between otherwise very similar galectin homologues. Indeed, while all monomeric galectins reveal identical topologies, dimer formation in hGal-7 proceeds through a “back-to-back” topology of the monomers while other galectins, including hGal-1 and hGal-2, adopt a “side-by-side” structural arrangement (Fig. 1B). This structural organization provides additional means to specifically target and disrupt galectin function.
Incubation of the recombinant B. hGal-1 and C. hGal-2 with hGal-7(129–135) was performed in the same potassium phosphate buffer. The effect of hGal-7(129–135) on the monomeric and dimeric forms of hGal-7/hGal-1/hGal-2 was assessed by Western blotting in native conditions with respective antibodies. The hGal-1/hGal-2 films were overexposed. PACAP28–38 was the control peptide used in order to ensure the specificity of hGal-7(129–135). Recombinant hGal-7 (0.5 μM) was also incubated with increasing concentrations of hGal-7(129–135) in 0.1 mM D. lactose or E. LacNac solutions. Results are representative of three independent experiments.
Human Gal-7 cDNA was cloned into pET-22b(+) using NdeI and HindIII restriction enzymes. Human pET-Gal-1 vector was generously donated by Dr. S. Sato (McGill University, QC, Canada). The proteins were produced in E. coli BL21 (DE3) cells at 37°C. Isopropyl β-D-1-thiogalactopyranoside (IPTG) (1 mM) was added to the bacterial culture at OD600nm = 0.6–0.7 and then incubated for 4 h at 37°C to allow protein production. Bacterial pellets were resuspended in lysis buffer (0.7 mg/mL lysozyme, 10 mM Tris pH 8, 100 mM NaCl, 1 mM EDTA, 1 mM DTT and a protease inhibitor cocktail) and then incubated for 1 h at 37°C prior to centrifugation for 30 min at 15,000 × g (4°C). The supernatant was then filtered with 500 mL bottle top filter ([…]) (Corning, New York, NY, USA) and then ran through a lactose-agarose column (Sigma, St. Louis, MO, USA). The protein was eluted in 1 mL fractions with 150 mM lactose solution. Purified fractions were analyzed by SDS-PAGE. The hGal-7 was then concentrated and purified using Centrifugal filter units (Amicon Ultra-15, 10K) (EMD, Millipore, Etobicoke, ON) in 20 mM potassium phosphate at pH 7.1. All subsequent experiments with the recombinant proteins were performed in the same buffer solution unless mentioned otherwise. Brilliant Coomassie blue was purchased from BioRad (Bio-Rad Laboratories, Mississauga, ON, Canada). The recombinant protein hGal-2 was purchased from MyBiosource (San Diego, CA, USA). […]
gaI-7 (0.5 μM) was incubated with increasing concentrations of biotin-labeled hGaI-7129–135 in 20 mM potassium phosphate buffer (pH 7.1) for 60 min at 4°C beforeWestern blot analysis in low SDS-PAGE using an anti-gaI-7 antibody. B. Similar experiments were carried out using recombinant human B. gaI-1 and C. gaI-2. Results are representative of two independent experiments.
(also on this page, place not known: www.impactjournals.com/oncotarget/ Oncotarget, Materials 2015 Supplementary hGaI-7 129–135.)

Jurkat T cells [1] = assay: hGal-7-induced apoptosis of Jurkat T cells, Annexin V/PI flow cytometry; assay type: cell-based; conditions: hGal-7 and peptide pre-incubated 1 h at 4°C, cells 4 h at 37°C, serum free RPMI 1640, three independent experiments
Experimental: Apoptosis was measured by Western blot analysis of PARP-1 cleavage. The PACAP28–38 was used as a control. β-actin was used as a loading control. B. Flow cytometric analysis of Jurkat T cells with stained Annexin V (FL1) and propidium iodide-PI (FL3) following binding of recombinant hGal-7 with or without hGal-7(129–135). Cells in the lower right quadrant are representative of annexin V-positive/PI-negative, or early apoptotic cells. Cells in the upper right quadrant indicate annexin V-positive/PI-positive, or late apoptotic cells. C. Histogram showing the percentages of annexin V-positive Jurkat T cells obtained by adding the percentages of cells found in the lower and upper right quadrants. Results are representative of three independent experiments. Error bars represent standard deviation.
(§1) Apoptosis was measured by flow cytometry using FITC-labeled Annexin V (Biolegend, San Diego, CA, USA) and propidium iodide (PI). Briefly, the corresponding dilutions of recombinant hGal-7 and hGal-7(129–135) peptides were pre-incubated for 1 h at 4°C in serum free RPMI 1640 medium. 2.5 × 10^5 Jurkat cells were then harvested in the same medium and incubated with their corresponding dilutions at 37°C for 4 h. Cells were washed once in PBS and once in binding buffer (0.01 M HEPES, 0.14 M NaCl, 2.5 mM CaCl2, pH 7.4). Cells were then incubated for 15 min with Annexin V in the dark at room temperature. A total of 400 μL of binding buffer containing 0.25 μg/mL propidium iodide was added to the cells before analysis by flow cytometry.

Jurkat T cells [2] = assay: Apoptosis/toxicity of peptide alone on Jurkat T cells; assay type: cell-based; conditions: for apoptosis induced by peptide alone in Jurkat T cells: 4 h at 37°C, Annexin V/PI two-color flow cytometry, three independent experiments
Experimental: as §1
Supplementary Figure S4: Inability of the control peptide (PACAP) to induce apoptosis on Jurkat T cells. Jurkat T cells wee incubated 4 h at 37°C with increasing concentrations of the control peptide PACAP before two-color flow cytometric analysis. On the left histograms, cells in the lower right quadrant are representative of annexin V-positive/PI-negative, or early apoptotic cells. Cells in the upper right quadrant indicate annexin V-positive/PI-positive, or late apoptotic cells. The right histograms show the percentages of annexin V-positive Jurkat T cells obtained by adding the percentages of cells found in the lower and upper right quadrants. Results are representative of three independent experiments. Error bars represent standard deviation.
(also on this page, place not known: www.impactjournals.com/oncotarget/ Oncotarget, Materials 2015 Supplementary) […]

[3] = 0.5 μM recombinant hGal-7, 20 mM potassium phosphate pH 7.1, pre-incubated 1 h at 4°C, native PAGE, Western blot, representative of three independent experiments

| Substance | disruption of hGal-7 homodimers in presence of LacNac (recombinant hGal-7; 0.5 μM hGal-7, 0.1 mM LacNac, representative of three independent experiments) | disruption of hGal-7 homodimers in presence of lactose (recombinant hGal-7; 0.5 μM hGal-7, 0.1 mM lactose, representative of three independent experiments) | disruption of hGal-7 homodimers (in words) (recombinant hGal-7; native PAGE, Western blot) | lowest concentration giving a consistent decrease of hGal-7 homodimers (recombinant hGal-7; [3]) [µM] | saturation dose for decrease of hGal-7 homodimers (recombinant hGal-7; [3]) [µM] | hGal-7-induced apoptosis of Jurkat T cells (Annexin V/PI) (Jurkat T cells [1]) | hGal-7-induced apoptosis of Jurkat T cells (Annexin V/PI) (Jurkat T cells [1]; listed as hGal-7 (129–135)) | apoptosis induced by peptide alone in Jurkat T cells (Jurkat T cells [2]) | toxicity of peptide alone on Jurkat T cells (Jurkat T cells [2]) | apoptosis induced by peptide alone in Jurkat T cells (Jurkat T cells [2]; listed as PACAP) |
| --- | --- | --- | --- | --- | --- | --- | --- | --- | --- | --- |
| H-LDSVRIP-NH2 [hGal-7(129–135), peptide corresponding to hGal-7 segment between residues 129–135] | not inhibited by the presence of lactose or LacNac | not inhibited by the presence of lactose | Disruption of the hGal-7 dimer; also recorded: effective at relatively high concentrations | 10 | 100 | This effect on apoptosis was confirmed by flow cytomtery | Apoptotic levels of Jurkat T cells induced by hGal-7 were decreased | did not induce apoptosis in Jurkat T cells |  |  |
| PACAP(28–38): an inactive fragment of the human Pituitary Adenylate Cyclase-Activating Polypeptide (PACAP) (GKRYKQRVKNK-NH2; ends and bridges not checked; UniProt P18509 159-169, looked up, fragment) |  |  | No such effect was observed |  |  | a slight increase in apoptosis is observed |  | did not induce apoptosis in Jurkat T cells; also recorded: does not induce apoptosis | did not display any toxicity on Jurkat T cells alone; also recorded: minimal toxicity on the cell line | Inability |
